Assay results taken from patent publication EP4745134A1 (Jiangsu Yahong Meditech Co., Ltd., priority 2023, dated 2025).

Experiments:
[1] = biological target: PRMT5-MTA (Homo sapiens, UniProt O14744); test: Enzymatic inhibitory activity against PRMT5-MTA (AlphaScreen); format: biochemical; conditions: read-out: IC50
Outline: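 PRMT5/[…] (1 nM) was preincubated for 30 min at room temperature with 1 µM […] and 2.5 µM SAM, then exposed to compound (10-point, 3-fold from 1000 nM) for 15 min at 23 °C. Histone H4 substrate (5 nM) was added and reacted for 45 min at 23 °C. Symmetric dimethyl-R3 H4 was detected by AlphaScreen and IC50 calculated.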

[2] = tested on: HCT116 MTAP KO cells; test: Inhibitory activity against cell proliferation (CellTiter Glo, 6 days), HCT116 MTAP KO; format: cell-based; conditions: for IC50: Homo sapiens, HCT-116, 144 h, HCT116 MTAP KO cells, 6 days, CellTiter Glo, read-out: HCT116 MTAP KO IC50; for Selectivity HCT 116-WT/ HCT116 MTAP KO: ratio of IC50 HCT116-WT / HCT116 MTAP KO
Outline: (§1)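 Cells were seeded at 250 per well in McCoy's 5A with 10% FBS and left overnight at 37°C, 5% CO2. Compounds were added as 8-point, 4-fold dilutions from 10000 nM, with DMSO-only controls, for 6 days. IC50 values came from CellTiter Glo luminescence.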

[3] = tested on: HCT116-WT cells; test: Inhibitory activity against cell proliferation (CellTiter Glo, 6 days), HCT116-WT; format: cell-based; conditions: 144 h, HCT116-WT cells, 6 days, CellTiter Glo; read-out: HCT116-WT IC50
Outline: as §1

Chain of PRMT5-MTA (O14744 whole entry): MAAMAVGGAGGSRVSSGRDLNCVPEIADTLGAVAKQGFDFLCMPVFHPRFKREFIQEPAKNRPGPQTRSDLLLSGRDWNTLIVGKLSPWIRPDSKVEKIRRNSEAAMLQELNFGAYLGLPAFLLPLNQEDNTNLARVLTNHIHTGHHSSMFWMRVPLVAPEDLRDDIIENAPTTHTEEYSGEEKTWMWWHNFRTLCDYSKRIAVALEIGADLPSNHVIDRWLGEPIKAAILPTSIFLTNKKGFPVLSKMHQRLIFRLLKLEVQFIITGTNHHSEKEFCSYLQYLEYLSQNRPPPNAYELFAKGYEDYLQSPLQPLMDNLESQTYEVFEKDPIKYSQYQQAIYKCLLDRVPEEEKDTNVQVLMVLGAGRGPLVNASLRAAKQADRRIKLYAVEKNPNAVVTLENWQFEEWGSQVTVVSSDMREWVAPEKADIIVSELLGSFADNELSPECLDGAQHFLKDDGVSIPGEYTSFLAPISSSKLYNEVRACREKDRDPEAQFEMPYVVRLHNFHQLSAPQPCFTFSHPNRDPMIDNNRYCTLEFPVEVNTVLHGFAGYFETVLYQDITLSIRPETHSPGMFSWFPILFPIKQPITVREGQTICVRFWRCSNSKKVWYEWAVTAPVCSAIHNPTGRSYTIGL
Chain of PRMT5-MTA (Q9BQA1 whole entry partner): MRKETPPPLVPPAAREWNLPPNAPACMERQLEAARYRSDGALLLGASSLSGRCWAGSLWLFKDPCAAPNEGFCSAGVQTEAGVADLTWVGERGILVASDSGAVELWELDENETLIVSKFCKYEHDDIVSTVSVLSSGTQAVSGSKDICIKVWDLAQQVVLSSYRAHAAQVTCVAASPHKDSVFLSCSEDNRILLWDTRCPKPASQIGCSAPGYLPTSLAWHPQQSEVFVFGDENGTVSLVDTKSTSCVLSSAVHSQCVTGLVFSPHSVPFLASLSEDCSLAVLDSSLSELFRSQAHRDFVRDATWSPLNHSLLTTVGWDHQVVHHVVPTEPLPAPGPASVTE

SMILES | IC50 [1] [nM] | IC50 [2] [nM] | Selectivity HCT 116-WT/ HCT116 MTAP KO [2] | IC50 [3] [nM]
Cn1ncc2c(N)nc3cc(Cl)c(C(=O)N4CC(F)(F)CN4c4cccc(F)c4F)cc3c21 [Example 461, (4-amino-7-chloro-1-methyl-1H-pyrazolo [4,3-c]quinolin-8-yl)(2-(2,3-difluorophenyl)-4,4-difluoropyrazolidin-1-yl)methanone] | 6.8 | 15 | 19.67 | 295
Cn1ncc2c(N)nc3cc(Cl)c(C(=O)N4CC(F)(F)CN4c4cccc(F)n4)cc3c21 [Example 462, (4-amino-7-chloro-1-methyl-1H-pyrazolo [4,3-c]quinolin-8-yl)(4,4-difluoro-2-(6-fluoropyridin-2-yl)pyrazolidin-1-yl)methanone] | 6 | 30 | 16.13 | 484
Cc1cc2nc(N)c3cnn(C)c3c2cc1C(=O)N1CCCN1c1ccc(C2CC2)cn1 [Example 468, (4-amino-1,7-dimethyl-1H-pyrazolo[4,3-c]quinolin-8-yl)(2-(5-cyclopropylpyridin-2-yl)pyrazolidin-1-yl)methanone] | 3.2 | 180 | 24.09 | 4340
Cc1cc2nc(N)c3cnn(C)c3c2cc1C(=O)N1CC(C)CN1c1ncc(-c2cnn(C(F)(F)F)c2)cc1F (stereo not drawn) [Example 472, (4-amino-1,7-dimethyl-1H-pyrazolo[4,3-c]quinolin-8-y1)(2-(3-fluoro-5-(1-(trifluor omethyl)-1H-pyrazol-4-yl)pyridin-2-yl)-4-methylpyrazolidin-1-yl)methanone] | 4.6 | 30 | 32.37 | 971
Cc1cc2nc(N)c3cnn(C)c3c2cc1C(=O)N1CCCN1c1ncc(-c2cccnc2)cc1F [Example 473, (4-amino-1,7-dimethyl-1H-pyrazolo[4,3-c]quinolin-8-yl)(2-(5-fluoro-[3,3'-bipyridine]-6-yl)pyrazolidin-1-yl)methanone] | 9 | 91 | 56.09 | 5100
Cc1cc2nc(N)c3cnn(C)c3c2cc1C(=O)N1CCCN1c1ncc(-c2cncs2)cc1F [Example 474, (4-amino-1,7-dimethyl-1H-pyrazolo[4,3-c]quinolin-8-yl)(2-(3-fluoro-5-(thiazol-5-yl)pyridin-2-yl)pyrazolidin-1-yl)methanone] | 7 | 28 | 33.18 | 929
Cc1cc2nc(N)c3cnn(C)c3c2cc1C(=O)N1CC(C)CN1c1ncc(-c2scnc2C)cc1F (stereo not drawn) [Example 475, (4-amino-1,7-dimethyl-1H-pyrazolo[4,3-c]quinolin-8-yl)(2-(3-fluoro-5-(4-methylthiazol-5-yl)pyridin-2-yl)-4-methylpyrazolidin-1-yl)methanone] | 5.1 | 63 | 43.81 | 2760
Cc1ncc(-c2cnc(N3CC(C)CN3C(=O)c3cc4c(cc3C)nc(N)c3cnn(C)c34)c(F)c2)s1 (stereo not drawn) [Example 476, (4-amino-1,7-dimethyl-1H-pyrazolo[4,3-c]quinolin-8-yl)(2-(3-fluoro-5-(2-methylthiazol-5-yl)pyridin-2-yl)-4-methylpyrazolidin-1-yl)methanone] | 5.6 | 28 | 33.64 | 942
Cc1ncc(-c2cnc(N3CC(C)CN3C(=O)c3cc4c(cc3C)nc(N)c3cnn(C)c34)c(F)c2)cn1 (stereo not drawn) [Example 477, (4-amino-1,7-dimethyl-1H-pyrazolo[4,3-c]quinolin-8-yl)(2-(3-fluoro-5-(2-methylpyrimidin-5-yl)pyridin-2-yl)-4-methylpyrazolidin-1-yl)methanone] | 4.7 | 28 | 52.00 | 1460
